Test results as given in the NIST ThermoML archive (doi:10.1016/j.fluid.2010.02.012).

Test: excess molar enthalpy (molar enthalpy of mixing); xn = mol fraction of the nth substance listed
Conditions: 298.18 K, 101 kPa, Liquid, Calvet calorimetry

CCCCCCCCCC [decane] + CCO
Conditions | excess molar enthalpy [kcal/mol]
x2 = 0.0881 | 0.12
x2 = 0.1338 | 0.142
x2 = 0.1766 | 0.159
x2 = 0.2665 | 0.174
x2 = 0.3141 | 0.176
x2 = 0.4314 | 0.176
x2 = 0.5931 | 0.161
x2 = 0.6501 | 0.153
x2 = 0.7248 | 0.141
x2 = 0.7837 | 0.128
x2 = 0.8079 | 0.123
x2 = 0.848 | 0.105
x2 = 0.8829 | 0.0894
x2 = 0.9377 | 0.0576
x2 = 0.962 | 0.038
